The record followed here is patent publication US12465603B2, “Phthalazinone based modulators for the treatment of disease” (Soley Therapeutics, Inc., priority 2022, dated 2025).

As a reminder, the IC50 is the concentration at which inhibition is half-maximal. Low values mean higher potency, high ones lower potency.

Each structure is given as a SMILES string.

Assay [1] concerns A2058 (ATCC, CRL-11147) cells. The experiment in a line: Cell viability assay (Cell Titre Glo, 72 hours) in A2058 cells. The assay is classed as cell-based. The conditions noted are these: Homo sapiens. On the procedure: (§1) Example 31: Cell Viability Assays
(§2) Phthalazinone based modulators as described herein were dispensed into 384 well CulturPlates™ (PerkinElmer) using Echo 555 acoustic dispensing in 10-point dose response curves at a final top concentration of 30 μM following a 1 in 3 dilution series. A2058 (ATCC, CRL-11147) or PA1 (ECACC, 90013101) cells were added directly to a compound at a density of 5000 cells per well in a final volume of 50 μL and incubated for 72 hours at 37° C., 5% CO2. Viability was assessed using Cell Titre Glo® (Promega) according to the manufacturer's instructions (25 μL per well) and IC50 curves were generated for each inhibitor using IDBS ActivityBase data analysis software.

Assay [2] has as its system PA1 (ECACC, 90013101) cells. Kind of assay: Cell viability assay (Cell Titre Glo, 72 hours) in PA1 cells. The assay is classed as cell-based. The conditions noted are these: Homo sapiens, PA-1. The method, then: as §1, §2

On to `COc1cnccc1N1CCN(C(=O)c2nn(C)c(=O)c3ccccc23)CC1` [Compound 15], for which the IC50 is 1 to 10 µM in assay [1] and at most 1 µM in assay [2].
For `COc1cc(N2CCN(C(=O)c3nn(C)c(=O)c4ccccc34)CC2)ccn1` [Compound 36], in that order: over 20 µM and over 20 µM.
For `CCn1nc(C(=O)N2CCN(c3cccnc3OC)CC2)c2ccccc2c1=O` [Compound 143], in that order: at most 1 µM and at most 1 µM.
For `COc1cc(F)cnc1N1CCN(C(=O)c2nn(C)c(=O)c3ccccc23)CC1` [Compound 13] the same measures were 10 to 20 µM and 1 to 10 µM.
Turning to `CCn1nc(C(=O)N2CCN(c3cc(F)ccc3OC)CC2)c2ccccc2c1=O` [Compound 121], the half-maximal inhibitory concentration (IC50) in assay [1] and in assay [2] was at most 1 µM each time.
Take `CCn1nc(C(=O)N2CCN(c3ccnc4c3OCC4)CC2)c2ccccc2c1=O` [Compound 187]: the IC50 in assay [1] and in assay [2] was at most 1 µM in each case.
Consider `CCc1ccncc1N1CCN(C(=O)c2nn(C)c(=O)c3ccccc23)CC1` [Compound 66], for which the half-inhibitory concentration (IC50) is 1 to 10 µM in assay [1] and at most 1 µM in assay [2].
For `CCn1nc(C(=O)N2CCN(c3ccc(F)c4c3OCC4)CC2)c2ccccc2c1=O` [Compound 186, 2-ethyl-4-(4-(4-fluoro-2,3-dihydrobenzofuran-7-yl)piperazine-1-carbonyl)phthalazin-1(2H)-one] the same measures were at most 1 µM and at most 1 µM.
For `CCn1nc(C(=O)N2CCN(c3ccccc3OC3CC3)CC2)c2ccccc2c1=O` [Compound 132], in that order: 1 to 10 µM and at most 1 µM.
For `O=C(c1nn(C2COC2)c(=O)c2ccccc12)N1CCN(c2ccccc2)CC1` [Compound 8], in that order: over 20 µM and over 20 µM.
As to `CCn1nc(C(=O)N2CCN(c3cncc(C)c3)CC2)c2cc(F)ccc2c1=O` [Compound 238], the IC50 in assay [1] and in assay [2] was at most 1 µM each time.
`COc1cc(C#N)cc(N2CCN(C(=O)c3nn(C)c(=O)c4ccccc34)CC2)c1` [Compound 224, 3-methoxy-5-(4-(3-methyl-4-oxo-3,4-dihydrophthalazine-1-carbonyl)piperazin-1-yl)benzonitrile]: the IC50 in assay [1] and in assay [2] was at most 1 µM in each case.
Take `CCn1nc(C(=O)N2CCN(c3ccc(F)c4ccoc34)CC2)c2ccccc2c1=O` [Compound 92]: the IC50 in assay [1] and in assay [2] was at most 1 µM each time.
In the case of `CCn1nc(C(=O)N2CCN(c3cccc(OC)c3F)CC2)c2ccccc2c1=O` [Compound 149], the IC50 is 10 to 20 µM in assay [1] and 1 to 10 µM in assay [2].
For `Cn1nc(C(=O)N2CCN(c3cc(F)cc(Cl)c3)CC2)c2ccccc2c1=O` [Compound 45] the same measures were at most 1 µM and at most 1 µM.
For `CCn1nc(C(=O)N2CCN(c3cccc4c3OC(F)(F)O4)CC2)c2ccccc2c1=O` [Compound 124], in that order: at most 1 µM and at most 1 µM.
For `Cn1nc(C(=O)N2CCN(c3cc(F)cc(C#N)c3)CC2)c2cnccc2c1=O` [Compound 220] the same measures were 1 to 10 µM and 1 to 10 µM.
On to `CCn1nc(C(=O)N2CCN(c3cccc(OC)n3)CC2)c2ccccc2c1=O` [Compound 84], for which the 50% inhibitory concentration (IC50) in assay [1] and in assay [2] was at most 1 µM throughout.
With `CCn1nc(C(=O)N2CCN(c3c(C)cnc4ccccc34)CC2)c2ccccc2c1=O` [Compound 123], the concentration for half-maximal inhibition (IC50) in assay [1] and in assay [2] was over 20 µM throughout.
For the compound `CCn1nc(C(=O)N2CCN(c3ccccc3Cl)CC2)c2ccccc2c1=O` [Compound 105], the IC50 in assay [1] and in assay [2] was at most 1 µM throughout.
In the case of `CCn1nc(C(=O)N2CCN(c3cc(OC)ncc3F)CC2)c2ccccc2c1=O` [Compound 152], the IC50 in assay [1] and in assay [2] was over 20 µM each time.
For `Cn1ccc(N2CCN(C(=O)c3nn(C)c(=O)c4ccccc34)CC2)n1` [Compound 11], the IC50 in assay [1] and in assay [2] was over 20 µM each time.
Regarding `CCn1nc(C(=O)N2CCN(c3cnccc3OC)CC2)c2ccccc2c1=O` [Compound 118], the IC50 in assay [1] and in assay [2] was at most 1 µM in each case.
As to `CCn1nc(C(=O)N2CCN(c3ccccc3OCC(F)(F)F)CC2)c2ccccc2c1=O` [Compound 147], the IC50 in assay [1] and in assay [2] was 1 to 10 µM in each case.
On to `Cc1cc(C)nc(N2CCN(C(=O)c3nn(C)c(=O)c4ccccc34)CC2)n1` [Compound 64], for which the figures for the IC50 in assay [1] and in assay [2] were over 20 µM and 1 to 10 µM, respectively.
Consider `Cn1nc(C(=O)N2CCN(c3cccc(C#N)c3)CC2)c2ccccc2c1=O` [Compound 49], for which the half-inhibitory concentration (IC50) in assay [1] and in assay [2] was at most 1 µM each time.
Take `COc1cccnc1N1CCN(C(=O)c2nn(C)c(=O)c3ccc(F)cc23)CC1` [Compound 169]: the IC50 in assay [1] is 1 to 10 µM; in assay [2], at most 1 µM.
For the compound `CCn1nc(C(=O)N2CCN(c3ccc(F)cc3OC(F)F)CC2)c2ccccc2c1=O` [Compound 145], the half-maximal inhibitory concentration (IC50) is 1 to 10 µM in assay [1] and at most 1 µM in assay [2].
For `Cn1nc(C(=O)N2CCN(c3cccn4ccnc34)CC2)c2ccccc2c1=O` [Compound 192], in that order: 10 to 20 µM and 1 to 10 µM.
For `Cn1nc(C(=O)N2CCN(c3cc(Cl)cc(Cl)c3)CC2)c2cnccc2c1=O` [Compound 218], in that order: at most 1 µM and at most 1 µM.
Regarding `Cn1nc(C(=O)N2CCN(c3cncnc3C3CC3)CC2)c2ccccc2c1=O` [Compound 40], the concentration for half-maximal inhibition (IC50) in assay [1] and in assay [2] was 1 to 10 µM each time.
In the case of `CCn1nc(C(=O)N2CCN(c3ncc(C#N)cc3OC)CC2)c2ccccc2c1=O` [Compound 93], the half-inhibitory concentration (IC50) in assay [1] and in assay [2] was 1 to 10 µM in each case.
Take `Cc1cncc(N2CCN(C(=O)c3nn(C)c(=O)c4ccccc34)CC2)c1` [Compound 73]: the half-inhibitory concentration (IC50) in assay [1] and in assay [2] was 1 to 10 µM each time.
On to `Cn1nc(C(=O)N2CCN(c3ccc4ccnn4c3)CC2)c2ccccc2c1=O` [Compound 203], for which the 50% inhibitory concentration (IC50) in assay [1] and in assay [2] was over 20 µM each time.
In the case of `Cc1cncc(N2CCN(C(=O)c3nn(C)c(=O)c4ccc(Cl)cc34)CC2)c1` [Compound 245, 6-chloro-2-methyl-4-(4-(5-methylpyridin-3-yl)piperazine-1-carbonyl)phthalazin-1(2H)-one], the IC50 in assay [1] is over 20 µM; in assay [2] it was 10 to 20 µM.
For `Cn1nc(C(=O)N2CCN(c3cncc4c3OCC4)CC2)c2ccccc2c1=O` [Compound 190] the same measures were at most 1 µM and at most 1 µM.
For `COc1ccc(F)c(N2CCN(C(=O)c3nn(C)c(=O)c4ccccc34)CC2)c1` [Compound 44] the same measures were at most 1 µM and at most 1 µM.
On to `COc1ncc(C)cc1N1CCN(C(=O)c2nn(C)c(=O)c3ccccc23)CC1` [Compound 77], for which the concentration for half-maximal inhibition (IC50) in assay [1] and in assay [2] was 1 to 10 µM in each case.
Turning to `Cn1nc(C(=O)N2CCN(c3cc(F)cc(C#N)c3)CC2)c2ccccc2c1=O` [Compound 61, 3-fluoro-5-(4-(3-methyl-4-oxo-3,4-dihydrophthalazine-1-carbonyl)piperazin-1-yl)benzonitrile], the IC50 in assay [1] and in assay [2] was at most 1 µM each time.
With `CCOc1ccccc1N1CCN(C(=O)c2nn(CC)c(=O)c3ccccc23)CC1` [Compound 134], the concentration for half-maximal inhibition (IC50) in assay [1] and in assay [2] was at most 1 µM throughout.
